Experiments:
Uromyces phaseoli = assay: Bean rust fungus eradicant test (URO PHA); format: in vivo; settings: pinto bean, eradicant spray 2 days after inoculation, 1,000 mg/l
Protocol: Compositions containing Compounds Nos. 1-81 were prepared by dissolving 0.24 grams of each of the compounds in 8 ml of acetone or other suitable inert solvent. Each of the resultant solutions was treated with 3 drops of TWEEN 20 (ethoxylated ethylene sorbitan monolaurate, a non-ionic surfactant)(I.C.I.), and water was added to form an emulsion. The degree of dilution with water was dictated by the desired concentration of the compound in the composition. The greater the quantity of water added, the lower the concentration of the compound in the composition, reported in milligrams per liter (mg/l) A plurality of pots were each planted with two pinto bean plants, Phaseolus vulgaris, each, susceptible to rust disease. When the plants were 7 days old, at the primary leaf stage of growth, they were all sprayed with a suspension containing 20,000 spores of the bean rust fungus, Uromyces phaseoli, per ml. All the pots were then incubated in a controlled environmental chamber, maintained at 99% humidity and 21° C., for 24 hours to allow infection to occur. The plants were then removed from the incubator and allowed to dry. Two days after inoculation each of the infected plants was then either sprayed with one of the compositions of Example 9, at a dosage of 1,000 mg/l, or left unsprayed. The unsprayed plants acted as controls. All of the sprayed and unsprayed plants were then placed in a greenhouse at 21° C. for nine days to allow the disease to develop. […] Control of disease was determined by comparing treated plants with the untreated controls. The results, expressed as percent reduction of disease, are summarized in Table II under the heading "URO PHA".

Pyricularia oryzae = assay: whole plant or invertebrate; format: in vivo; settings: barley, foliar, 1,000 mg/l
Septoria nodorum = assay: Fungal growth inhibition, treated disc on agar (SEP NOD); format: cell-based; settings: disc dipped in 500 mg/l, 29° C.
Text: (§3) Filter paper discs, each 11 mm. in diameter, were dipped in each of the test solutions. The discs were allowed to air dry to drive off the acetone solvent. A number of untreated discs were used as controls.
(§4) The treated and untreated discs were then placed on agar plates and one of the following fungus species: Septoria nodorum (SEP NOD), Botrytis cinerea (BOT CIN), Fusarium oxysporum (FUS OXY), Pythium ultimum (PYT ULT), Rhizoctonia solani (RHI SOL), Colletotrichum gossypii (COL GOS), and Scierotinia minor (SCL MIN), was added to the center of each disc in the form of a culture plug with the fungus mat in contact with the paper of the test disc. Cercosporidium personatum (CER PER), was added to discs as a spore suspension (20,000 spores/ml) to the disc (two drops of spore suspension per disc), rather than a mycelial culture plug. The plates were then incubated at 29° C. in an oven.
(§5) With the exception of the discs containing Cercosporidium personatum, the discs were evaluated by first measuring the radius from the center of the fungus colony on the treated discs and on the untreated discs. Percent growth inhibition of each of the compounds tested was determined as a function of the difference between the radius of the fungus colony on the treated disc versus the radius of the fungus colony on the untreated disc.

Fusarium oxysporum = assay: Fungal growth inhibition, treated disc on agar (FUS OXY); format: cell-based; settings: disc dipped in 500 mg/l, 29° C.
Pythium ultimum = assay: Fungal growth inhibition, treated disc on agar (PYT ULT); format: cell-based; settings: disc dipped in 500 mg/l, 29° C.
Helminthosporium sativum = assay: Barley spot blotch, foliar treatment (HEL SAT); format: in vivo; settings: foliar, 1,000 mg/l
Protocol: Compositions containing Compounds Nos. 1-81 were prepared by dissolving 0.24 grams of each of the compounds in 8 ml of acetone or other suitable inert solvent. Each of the resultant solutions was treated with 3 drops of TWEEN 20 (ethoxylated ethylene sorbitan monolaurate, a non-ionic surfactant)(I.C.I.), and water was added to form an emulsion. The degree of dilution with water was dictated by the desired concentration of the compound in the composition. The greater the quantity of water added, the lower the concentration of the compound in the composition, reported in milligrams per liter (mg/l) Ten plants of six day-old Barley (variety "Robust") were planted in each of a plurality of pots. Each pot was then either sprayed with one of the compositions of Example 9, at a concentration of 1,000 mg/l, or left unsprayed. The unsprayed plants were used as controls. An equal number of pots were sprayed and unsprayed. All plants, sprayed and unsprayed, were thereafter inoculated with spores of the blotch fungus Helminthosporium sativum. All inoculated plants were placed in a 99% humidity chamber for 24 hours and then placed in a greenhouse, maintained at a temperature of 21° C., for eight days. […] Percent control was computed and the results are summarized in Table II under the heading "HEL SAT".

Erysiphe cichoracearum = assay: Powdery mildew of cucumber, systemic root uptake (CMS); format: in vivo; settings: 45 ml of 250 mg/l, 8 days after inoculation
Protocol: (§1) Compositions containing Compounds Nos. 1-81 were prepared by dissolving 0.24 grams of each of the compounds in 8 ml of acetone or other suitable inert solvent. Each of the resultant solutions was treated with 3 drops of TWEEN 20 (ethoxylated ethylene sorbitan monolaurate, a non-ionic surfactant)(I.C.I.), and water was added to form an emulsion. The degree of dilution with water was dictated by the desired concentration of the compound in the composition. The greater the quantity of water added, the lower the concentration of the compound in the composition, reported in milligrams per liter (mg/l) […] Upon reaching these ages, the plants were either treated with 45 ml of 250 mg/l concentration of the compositions of Example 9 or were left untreated. The untreated plants were used as controls. The 45 ml compositions saturated the soil of the treated pots without significant loss through drainage into the saucers below the pots. Twenty-four hours after the treatment with the compositions, both the barley and cucumber plants in all the pots, those treated and those untreated, were inoculated with powdery mildew fungus. This was accomplished by tapping leaves of previously infected barley and cucumber plants over the treated and untreated pots containing the barley and cucumber plants, respectively, to distribute spores of the fungus over the plants tested. […] Intermediate ratings were assigned depending on the degree of disease. […] The results of the powdery mildew disease control of barley are reported under the heading of "BMS". The results for cucumber mildew control are reported under the heading "CMS".

Erysiphe graminis [1] = assay: Powdery mildew of barley, systemic root uptake (BMS); format: in vivo; settings: 45 ml of 250 mg/l, 8 days after inoculation
Protocol: as §1

Rhizoctonia solani = assay: Fungal growth inhibition, treated disc on agar (RHI SOL); format: cell-based; settings: disc dipped in 500 mg/l, 29° C.
Text: as §3, §4, §5

Botrytis cinerea = assay: Fungal growth inhibition, treated disc on agar (BOT CIN); format: cell-based; settings: disc dipped in 500 mg/l, 29° C.
Scierotinia minor = assay: Fungal growth inhibition, treated disc on agar (SCL MIN); format: cell-based; settings: disc dipped in 500 mg/l, 29° C.
Text: as §3, §4, §5

Erysiphe polygoni = assay: Powdery mildew on pinto bean, foliar application (ERY POL); format: in vivo; settings: similar procedure as barley (1,000 mg/l)
Protocol: (§2) Compositions containing Compounds Nos. 1-81 were prepared by dissolving 0.24 grams of each of the compounds in 8 ml of acetone or other suitable inert solvent. Each of the resultant solutions was treated with 3 drops of TWEEN 20 (ethoxylated ethylene sorbitan monolaurate, a non-ionic surfactant)(I.C.I.), and water was added to form an emulsion. The degree of dilution with water was dictated by the desired concentration of the compound in the composition. The greater the quantity of water added, the lower the concentration of the compound in the composition, reported in milligrams per liter (mg/l) Ten plants of "Robust" variety barley were planted in each of a plurality of pots. Each pot was then either sprayed with one of the compositions of Example 9, at a composition concentration of 1,000 mg/l, or left unsprayed. For each pot sprayed, one pot was left unsprayed as a control. After the leaves of the sprayed pots were dried, the sprayed pots and the unsprayed control pots were placed in a greenhouse maintained at 21° C. All the pots were then inoculated with barley powdery mildew fungus, Erysiphe graminis. This inoculation was accomplished by distributing spores of the fungus over the leaves of the plants to be tested from plants which had previously been infected with the mildew disease. […] Again, percent control was computed by comparing the treatment scores with the scores of the untreated controls. The results are summarized in Table II under the heading "ERY GRA". Using a similar procedure as described above for the barley, pinto bean plants were prepared, treated and inoculated with the fungus Erysiphe polygoni. The results of this testing are summarized in Table II under the heading "ERY POL".

Erysiphe graminis [2] = assay: Powdery mildew in barley, foliar application (ERY GRA); format: in vivo; settings: foliar, 1,000 mg/l, 8 days after inoculation
Protocol: as §2, with “GRA".” for “GRA". Using a similar procedure as described above for the barley, pinto bean plants were prepared, treated and inoculated with the fungus Erysiphe polygoni. The results of this testing are summarized in Table II under the heading "ERY POL".”

Colletotrichum gossypii = assay: Fungal growth inhibition, treated disc on agar (COL GOS); format: cell-based; settings: disc dipped in 500 mg/l, 29° C.

CCCCC(C#N)(CCc1ccc(OC)cc1)c1ccccn1 (centres unmarked) [Compound 27]
Percent Reduction of Disease, URO PHA (Uromyces phaseoli): 100%
Percent Reduction of Disease, PYR ORY (Pyricularia oryzae): 70%
Percent Growth Inhibition, SEP NOD (Septoria nodorum): 10%
Percent Growth Inhibition, FUS OXY (Fusarium oxysporum): 10%
Percent Growth Inhibition, PYT ULT (Pythium ultimum): 10%
Percent Reduction of Disease, HEL SAT (Helminthosporium sativum): 90%
Percent Reduction of Disease, CMS (Erysiphe cichoracearum): 0%
Percent Reduction of Disease, BMS (Erysiphe graminis [1]): 0%
Percent Growth Inhibition, RHI SOL (Rhizoctonia solani): 5%
Percent Growth Inhibition, BOT CIN (Botrytis cinerea): 78%
Percent Growth Inhibition, SCL MIN (Scierotinia minor): 93%
Percent Reduction of Disease, ERY POL (Erysiphe polygoni): 90%
Percent Reduction of Disease, ERY GRA (Erysiphe graminis [2]): 90%
Percent Growth Inhibition, COL GOS (Colletotrichum gossypii): 20%

— patent publication US5945436A, “Pyridylmethyl nitriles, amides and thioamides useful as fungicides” (Uniroyal Chemical Company, Inc., priority 1997, dated 1999)
